Where two headings read alike, the source gives them in different places.
How the values were obtained:
[1] = tested on: MDA-MB-231 cells; assay: Propidium iodide staining of dying cells; assay type: cell-based, human; conditions: 1 µM for 24 h
Procedure: Cells (1 × 10^6) were incubated with drugs for 24 h. Cells were next incubated with 50 μg/mL PI in growth media for 15 min at room temperature and protected from light. Cell death was monitored by fluorescence staining of DNA by PI and analysed by fluorescent microscopy using a Floid imaging station (460× magnification).

[2] = Absorbance spectra in DMSO; assay type: physicochemical; conditions: 25 °C
Procedure: The absorbance and fluorescence emission spectra of up to 7 three-fold serial dilutions of MHI-148 and MHI-palbociclib in DMSO, ranging from […], were acquired at 25 °C.
• (a) Absorbance spectra of the test compound solutions (200 μL) plated in a 96-well polystyrene flat-bottom transparent microplate were acquired on a quad monochromator-equipped microplate reader Enspire 2300 (Perkin-Elmer; Singapore) from 650 nm to 900 nm in 1 nm increments. • (b) Fluorescence emission spectra of the compound solutions in a 2 mL semi-micro quartz cuvette were measured on a FP-8600 spectrofluorometer (JASCO; Japan) between 790 nm and 850 nm in 1 nm increments at the excitation wavelength of 780 nm. The fluorescence emission was measured at a high sensitivity of the instrument, with an excitation and emission bandwidth of 5 nm, a 50 ms response time, and a scan speed of 1000 nm per minute.

[3] = tested on: 51D1; assay: [3H]-thymidine incorporation cell proliferation assay; assay type: cell-based, Chinese hamster; conditions: 3 days of treatment, mean ± SEM
Procedure: (§1) As described previously, 3000 cells per well were seeded in 96-well plates and incubated in the presence of varying concentrations of drugs for three days. Cell proliferation was measured by thymidine uptake assay, cell growth by sulforhodamine B (SRB) colorimetric assay, and cell viability by WST-1 assay, as previously described.
(§2) Briefly, for the proliferation assay, [^3H]-thymidine (0.04 μCi) was added to each well and plates were incubated for 5 h, after which the cells were harvested onto glass–fiber filters using an automated TomTec harvester. Filters were incubated with Betaplate Scint and [^3H]-thymidine incorporation was measured in a Trilux/Betaplate counter. Cell proliferation was determined by the percentage incorporation of [^3H]-thymidine.

[4] = tested on: 51D1.3; assay: as above; assay type: cell-based, Chinese hamster; conditions: 3 days of treatment, mean ± SEM
Procedure: as §1, §2

[5] = tested on: MDA-MB-231 cells; assay: Flow cytometry cell cycle analysis (DNA content, PI); assay type: cell-based, human; conditions: 500 nM for 24 h, untreated cells 48%
Procedure: As previously described, cells (1 × 10^6 cells) were grown in six-well plates and incubated with drugs for 24 h. Cells were harvested, washed with 1% FBS/phosphate-buffered saline (PBS), resuspended in 200 μL of PBS, fixed in 2 mL of ice-cold 100% ethanol, and stored overnight at −20 °C. The cells were washed and resuspended in 1 mL of 1% FBS/PBS, containing RNase (1 μg/mL) and propidium iodide (PI) (10 μg/mL), for 30 min at room temperature. DNA content was determined using […] by PI staining based on a total of 25,000 acquired events on a BD Biosciences Accuri C6 flow cytometer, and cell cycle distribution was analysed using FlowJo version 10.7.2.

[6] = tested on: HEK293; assay: SRB cell growth assay; assay type: cell-based, human; conditions: 3 days of treatment, mean ± SEM
Procedure: as §1
(§3) The SRB colorimetric assay, which is based on the measurement of cellular protein content, was used to measure cell density. After drug treatment for 3 days, cells were fixed with 10% (wt/vol) trichloroacetic acid and stained for 30 min, and the excess dye was removed by washing repeatedly with 1% (vol/vol) acetic acid. The protein-bound dye was dissolved in Tris base solution (10 mM) for optical density determination at 510 nm using a microplate reader. Optimal cell densities were previously determined to select initial cell densities that ensured that cells were in logarithmic phase for the experiments.

[7] = tested on: MCF-7; assay: SRB cell growth assay; assay type: cell-based, human; conditions: for IC50: 3 days of treatment, mean ± SEM
Procedure: as §1, §3

[8] = tested on: MDA-MB-231; assay: SRB cell growth assay; assay type: cell-based, human; conditions: for IC50: 3 days of treatment, mean ± SEM
Procedure: as §1, §3

[9] = tested on: HEK293; assay: WST-1 cell viability assay; assay type: cell-based, human; conditions: for IC50: 3 days of treatment, mean ± SEM; for EC50: Supplementary Table S1
Procedure: as §1
(§4) For viability, […] activity was measured using a water-soluble tetrazolium salt (WST-1) (purchased from Roche, Basel, Switzerland) after drug treatment for 3 days. The stable tetrazolium salt WST-1 is cleaved to a soluble formazan by a complex cellular mechanism that occurs primarily at the cell surface. This bio-reduction is largely dependent on the glycolytic production of NAD(P)H in viable cells. Therefore, the amount of formazan dye formed directly correlates with the number of metabolically active cells in the culture.

[10] = tested on: MCF-7; assay: WST-1 cell viability assay; assay type: cell-based, human; conditions: for IC50: 3 days of treatment, mean ± SEM; for EC50: MCF7, Supplementary Table S1
Procedure: as §1, §4

[11] = tested on: MDA-MB-231; assay: WST-1 cell viability assay; assay type: cell-based, human; conditions: for IC50: 3 days of treatment, mean ± SEM; for EC50: Supplementary Table S1
Procedure: as §1, §4

[12] = tested on: 51D1; assay: SRB cell growth assay; assay type: cell-based, Chinese hamster; conditions: 3 days of treatment, mean ± SEM
Procedure: as §1, §3

[13] = tested on: 51D1.3; assay: SRB cell growth assay; assay type: cell-based, Chinese hamster; conditions: 3 days of treatment, mean ± SEM
Procedure: as §1, §3

[14] = Behaviour in aqueous environments (solubility observation); assay type: physicochemical; conditions: high concentration
[15] = tested on: HEK293; assay: [3H]-thymidine incorporation cell proliferation assay; assay type: cell-based, human; conditions: 3 days of treatment, mean ± SEM
Procedure: as §1, §2

[16] = tested on: MCF-7; assay: as above; assay type: cell-based, human; conditions: 3 days of treatment, mean ± SEM
Procedure: as §1, §2

[17] = tested on: MDA-MB-231; assay: as above; assay type: cell-based, human; conditions: for IC50: MDA-MB-231, 3 days of treatment, mean ± SEM
Procedure: as §1, §2

[18] = tested on: 51D1; assay: WST-1 cell viability assay; assay type: cell-based, Chinese hamster; conditions: for IC50: 3 days of treatment, mean ± SEM; for EC50: Supplementary Table S1
Procedure: as §1, §4

[19] = tested on: 51D1.3; assay: WST-1 cell viability assay; assay type: cell-based, Chinese hamster; conditions: for IC50: 3 days of treatment, mean ± SEM; for EC50: Supplementary Table S1
Procedure: as §1, §4

[20] = tested on: MCF-7; parameters: method as in earlier work; conditions: different proliferation assay, ref 21 (Finn et al.), read-out: IC50 proliferation, previously reported; cited from earlier work
[21] = tested on: MDA-MB-231; conditions: data from Finn et al.
[22] = tested on: MDA-MB-231; parameters: method as in earlier work; conditions: different proliferation assay, ref 21 (Finn et al.), read-out: IC50 proliferation, previously reported; cited from earlier work
[23] = tested on: MCF-7; parameters: method as in PMID 30370249; conditions: read-out: IC50 proliferation; cited from earlier work
[24] = tested on: MDA-MB-231; parameters: method as in PMID 30370249; conditions: read-out: IC50 proliferation; cited from earlier work

With `CC(=O)c1c(C)c2cnc(Nc3ccc(N4CCN(C(=O)CCCCCN5/C(=C/C=C6\CCCC(/C=C/C7=[N+](CCCCCC(=O)N8CCN(c9ccc(Nc%10ncc%11c(C)c(C(C)=O)c(=O)n(C%12CCCC%12)c%11n%10)nc9)CC8)c8ccccc8C7(C)C)=C6Cl)C(C)(C)c6ccccc65)CC4)cn3)nc2n(C2CCCC2)c1=O.[Br-]` [MHI-palbociclib] the “PI staining of dying cells (cytotoxic effect)” value [1] was “increased PI staining and reduced cell number”, the “Absorbance λmax” value [2] was 800 nm and the IC50 [3] was 205 ± 4.6 nM. For the same compound, the IC50 [4] was 217 ± 8.7 nM, the “G1 cell cycle arrest (proportion of cells in G1)” value [5] was 55% and the IC50 [6] was 171 ± 7.9 nM. For the same compound, the “Growth inhibitory effect compared with combination of unconjugated palbociclib and MHI-148” value ([7]; 2.5 μM, 3 days, t-test p = 0.002) was “significantly greater”, the IC50 [7] was 506 ± 93.6 nM and the “Growth inhibitory effect compared with combination of unconjugated palbociclib and MHI-148” value ([8]; 2.5 μM, 3 days, t-test p = 0.003) was “significantly greater”. The IC50 [8] was 683 ± 29.6 nM, the IC50 [9] was 418 ± 68.3 nM and the EC50 [9] was 544 nM. It also gave an IC50 [10] of 845 ± 34.3 nM, an IC50 [11] of 1020 ± 150 nM and an EC50 [11] of 872 nM. The IC50 [12] was 187 ± 3.9 nM, the IC50 [13] was 164 ± 6.8 nM and the “Behaviour in aqueous environments” value [14] was “rapidly precipitates in aqueous environments”. The IC50 [15] was 170 ± 4.1 nM, the IC50 [16] was 215.4 ± 0.8 nM and the IC50 [17] was 170 ± 9.7 nM. It also gave an IC50 [18] of 197 ± 15.7 nM, an EC50 [18] of 265 nM and an IC50 [19] of 401 ± 89 nM. The EC50 [19] was 471 nM.
For `CC1(C)C(/C=C/C2=C(Cl)C(=C/C=C3/N(CCCCCC(=O)O)c4ccccc4C3(C)C)/CCC2)=[N+](CCCCCC(=O)O)c2ccccc21.[Br-]` [MHI-148, 1-(5-Carboxypentyl)-2-((E)-2-((E)-3-(2-((E)-1-(5-carboxypentyl)-3,3-dimethylindolin-2-ylidene)ethylidene)-2-chlorocyclohex-1-en-1-yl)vinyl)-3,3-dimethyl-3H-indol-1-ium bromide], the “Absorbance λmax” value [2] was 797 nm, the IC50 ([3]; Cricetulus griseus, 72 h) was over 2500 nM and the IC50 ([4]; Cricetulus griseus, 72 h) was over 2500 nM. The IC50 ([6]; Homo sapiens, 72 h) was over 2500 nM, the IC50 ([7]; Homo sapiens, MCF7, 72 h) was over 2500 nM and the IC50 ([8]; Homo sapiens, 72 h) was over 2500 nM. It also gave an IC50 ([9]; Homo sapiens, 72 h) of over 2500 nM, an EC50 ([9]; Homo sapiens) of over 2500 nM and an IC50 ([10]; Homo sapiens, MCF7, 72 h) of over 2500 nM. For the same compound, the EC50 ([10]; Homo sapiens) was over 2500 nM, the IC50 ([11]; Homo sapiens, 72 h) was over 2500 nM and the EC50 ([11]; Homo sapiens) was over 2500 nM. The IC50 ([12]; Cricetulus griseus, 72 h) was over 2500 nM, the IC50 ([13]; Cricetulus griseus, 72 h) was over 2500 nM and the IC50 ([15]; Homo sapiens, 72 h) was over 2500 nM. It also gave an IC50 ([16]; Homo sapiens, MCF7, 72 h) of over 2500 nM, an IC50 ([17]; Homo sapiens, 72 h) of over 2500 nM and an IC50 ([18]; Cricetulus griseus, 72 h) of over 2500 nM. It also gave an EC50 ([18]; Cricetulus griseus) of over 2500 nM, an IC50 ([19]; Cricetulus griseus, 72 h) of over 2500 nM and an EC50 ([19]; Cricetulus griseus) of over 2500 nM.
In the case of `CC(=O)c1c(C)c2cnc(Nc3ccc(N4CCNCC4)cn3)nc2n(C2CCCC2)c1=O` [Palbociclib], the “PI staining of dying cells (cytotoxic effect)” value [1] is listed as “minimal PI staining”, the IC50 [20] is listed as 148 ± 25.7 nM and the “G1 cell cycle arrest (proportion of cells in G1)” value [5] is listed as 87%. The IC50 ([6]; Homo sapiens, 72 h) was over 2500 nM, the IC50 ([7]; Homo sapiens, MCF7, 72 h) was over 2500 nM and the IC50 ([8]; Homo sapiens, 72 h) was over 2500 nM. For the same compound, the “Fold difference of the IC50 of the two cell lines (MDA-MB-231 vs MCF-7)” value [21] was 2.9 fold, the IC50 ([9]; Homo sapiens, 72 h) was over 2500 nM and the EC50 ([9]; Homo sapiens) was over 2500 nM. For the same compound, the IC50 ([10]; Homo sapiens, MCF7, 72 h) was over 2500 nM, the EC50 ([10]; Homo sapiens) was over 2500 nM and the IC50 ([11]; Homo sapiens, 72 h) was over 2500 nM. The EC50 ([11]; Homo sapiens) was over 2500 nM, the IC50 ([12]; Cricetulus griseus, 72 h) was over 2500 nM and the IC50 ([13]; Cricetulus griseus, 72 h) was over 2500 nM. For the same compound, the IC50 [22] was 432 ± 16.1 nM, the IC50 ([16]; Homo sapiens, MCF7, 72 h) was 29.1 ± 8.6 nM and the IC50 ([17]; Homo sapiens, 72 h) was 72.2 ± 2.8 nM. For the same compound, the “Fold difference of the IC50 of the two cell lines (MDA-MB-231 vs MCF-7)” value ([17]; thymidine incorporation, own data) was 2.5 fold, the IC50 ([18]; Cricetulus griseus, 72 h) was over 2500 nM and the EC50 ([18]; Cricetulus griseus) was over 2500 nM. The IC50 ([19]; Cricetulus griseus, 72 h) was over 2500 nM and the EC50 ([19]; Cricetulus griseus) was over 2500 nM.
In the case of `CC(=O)O[C@H]1C(=O)[C@@]2(C)[C@H]([C@H](OC(=O)c3ccccc3)[C@]3(O)C[C@H](OC(=O)[C@H](O)[C@@H](NC(=O)c4ccccc4)c4ccccc4)C(C)=C1C3(C)C)[C@]1(OC(C)=O)CO[C@@H]1C[C@@H]2O` [paclitaxel], the IC50 [23] is listed as 9.05 ± 0.04 nM and the IC50 [24] is listed as 5.8 ± 1.13 nM.
